Patent EP0035856A2, “Pharmaceutical and dietary compositions” (EFAMOL LIMITED, priority 1980, dated 1981)
Like-named read-outs stand apart in the source and are kept apart here.

How the values were obtained:
Kidney slices (rat) = assay: Conversion of 14C-labelled DGLA and AA to PGEs in rat kidney slices; type: cell-based; settings: 5 μg/ml drug, percentage of control incubation with drug vehicle alone, 10% variation is a real change
Protocol: The conversions of the precursors to the respective PGEs and TXBs in platelets and to the PGEs in kidney slices were investigated. The results are shown in the following tables and are expressed as percentages of the results obtained during control incubations when drug vehicle alone was added. A 10% variation is a reliable indication of real change.
The detailed technique with platelets is given below by way of example. That with kidney slices was essentially similar.
(1-^14C) arachidonic acid and (1-^14C) dihomo-y-linolenic acid was used, diluted with hexane to specific activities of about 2 or 5 µCi/µmol. One day expired (2 days old) human platelets were obtained and used within 48 hours of expiration. One unit was centrifuged at lOOOg for 15 minutes and the supernatant drawn off. The platelet pellet was resuspended in Tris-NaCl-EDTA buffer, made up of 0.15 M NaCl, 0.15 M Tris HC1 at pH 7.4 and 0.077 M NaEDTA (90:8:2 v/v/v). The platelets were recentrifuged, the supernatant removed and the pellet resuspended in Krebs-Henseleit buffer (without calcium) at oH 7.4. The washed platelet suspension contained about 1-2% red blood cells. All glassware used in the preparation of the platelets was siliconized.
Four equal sized 1 ml aliquots of the platelet suspension, containing 10^9 platelets/ml were incubated with e.g. 0.5 µCi 14 C-DGLA for five minutes. At the beginning of the incubation the drug under test was added to the suspensions. The reaction was stopped after five minutes by addition of 1/10 volume of 10% formic acid. The suspension was then extracted three times with ethyl acetate and the fractions pooled and dried under vacuum. The extract was then taken up with 5 ml chloroform/methanol (2/1, v/v). Recovery of radioactive material in the extract was checked by taking 50pl of the chloroform/methanol and counting by liquid scintillation. Recovery was in the range 80-95% in most experiments.
The chloroform/methanol extract was then reduced in volume to 1 ml under dry prepurified nitrogen. Thin layer chromatography was carried out on […] precoated, prescored silica gel G Uniplates (Analtech). Plates were activated by heating to 100°C for 1 hour immediately prior to use. The solvent system was chloroform:methanol: acetic acid:water (90:8:1:0.8). Reference compounds (PG's El and Fla, and thromboxane Bl) were run at the same time and visualized by phosphomolybdic acid spray followed by brief heating. The bands on the plates corresponding to the reference PGE 1,PFG la and TXB 1 were scraped off and eluted with 20 ml acetone. Each elution was then evaporated to dryness and counted by liquid scintillation (Beckman 100 LS counter). […]

Platelets (human) = assay: Conversion of 14C-labelled DGLA and AA to PGEs and TXBs in human platelets; type: cell-based; settings: Platelet, 5 μg/ml drug, percentage of control incubation with drug vehicle alone
Protocol: The method is given in detail later herein but briefly human platelets are incubated with radioactive DGLA or arachidonic acid. The PGs produced during incubation are extracted by conventional means and separated by thin layer chromatography, and the amount of radioactivity appearing in each PG or related substance is counted. PGE 1, PGF la and thromboxane Bl from DGLA, and PGE 2, PFG 2a and thromboxane B2 from AA are estimated.
The conversions of the precursors to the respective PGEs and TXBs in platelets and to the PGEs in kidney slices were investigated. […] A 10% variation is a reliable indication of real change.
The chloroform/methanol extract was then reduced in volume to 1 ml under dry prepurified nitrogen. Thin layer chromatography was carried out on 500 µg precoated, prescored silica gel G Uniplates (Analtech). Plates were activated by heating to 100°C for 1 hour immediately prior to use. The solvent system was chloroform:methanol: acetic acid:water (90:8:1:0.8). Reference compounds (PG's El and Fla, and thromboxane Bl) were run at the same time and visualized by phosphomolybdic acid spray followed by brief heating. […] Each elution was then evaporated to dryness and counted by liquid scintillation (Beckman 100 LS counter). […]

[1] = system: rat mesenteric vascular bed; settings: cited from earlier work; for inhibitory action on noradrenaline responses with intact PG synthesis versus PG synthesis blocked: PG synthesis blocked by indomethacin or by aspirin
[2] = read-out: PGE 1 formed from precursor acid DGLA
[3] = read-out: PGE 2 formed from precursor acid AA

| SMILES | inhibitory action on noradrenaline responses with intact PG synthesis versus PG synthesis blocked [1] | effect on responses to noradrenaline [1] | also measured |
| --- | --- | --- | --- |
| CCN(CC)CCCC(C)Nc1ccnc2cc(Cl)ccc12 (centres unmarked) [chloroquine] | more potent when endogenous prostaglandin synthesis is intact | inhibits responses to noradrenaline | activity at 5 µg/mL (Kidney slices (rat); [2]): 129%; activity at 5 µg/mL (Kidney slices (rat); [3]): 101%; activity at 5 µg/mL (Platelets (human); [2]): 132%; activity at 5 µg/mL (Platelets (human); [3]): 98%; activity at 5 µg/mL (Platelets (human); read-out: TXB 1 formed from precursor acid DGLA): 128%; activity at 5 µg/mL (Platelets (human); read-out: TXB 2 formed from precursor acid AA): 97% |
| CCCCC/C=C\C/C=C\C/C=C\CCCCCCC(=O)O [DGLA, dihomo-y-linolenic acid] |  | inhibit responses to noradrenaline |  |
| CCCCC/C=C\C/C=C\C/C=C\C/C=C\CCCC(=O)O [AA, arachidonic acid] |  | increase noradrenaline responses |  |
| C=C[C@H]1C[N@@]2CC[C@H]1C[C@H]2[C@H](O)c1ccnc2ccc(OC)cc12 [quinine] | share this effect of chloroquine |  |  |
| CCCCC[C@H](O)/C=C/[C@H]1[C@H](O)CC(=O)[C@@H]1CCCCCCC(=O)O [PGE 1] |  | inhibit responses to noradrenaline |  |
| CCN(CC)CCOC(=O)c1ccc(N)cc1 [procaine] | share this effect of chloroquine |  |  |
| C=C[C@H]1C[N@@]2CC[C@H]1C[C@@H]2[C@@H](O)c1ccnc2ccc(OC)cc12 [quinidine] | share this effect of chloroquine |  |  |
| CCN(CC)CCCC(C)Nc1c2ccc(Cl)cc2nc2ccc(OC)cc12 (centres unmarked) [quinacrine] | share this effect of chloroquine |  |  |
| CC(=O)S[C@@H]1CC2=CC(=O)CC[C@]2(C)[C@H]2CC[C@@]3(C)[C@@H](CC[C@@]34CCC(=O)O4)[C@H]12 [spironolactone] |  |  | activity at 5 µg/mL (Kidney slices (rat); [2]): 143%; activity at 5 µg/mL (Kidney slices (rat); [3]): 67% |
